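Grown in 96-well plates, cells were treated for 48 hours with each compound at five concentrations. Insufficient inhibition: endpoint recorded as highest concentration tested. The concentration for 50% growth inhibition is given as GI50.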 Active and inactive are the calls of the source. No stated cut-off is given here; in the data, active = GI50 up to about 1.1 µM and inactive = higher.
How the values were obtained:
Test in all cases: growth of human tumour cells (NCI), 48 h
MOLT-4 = test system: MOLT-4
Malme-3M = test system: Malme-3M
SF-539 = test system: SF-539
OVCAR-3 = test system: OVCAR-3
ACHN = test system: ACHN
A498 = test system: A498
MCF7 = test system: MCF7
786-0 = test system: 786-0
HCT-116 = test system: HCT-116
OVCAR-8 = test system: OVCAR-8
SK-OV-3 = test system: SK-OV-3
PC-3 = test system: PC-3
NCI-H522 = test system: NCI-H522
SK-MEL-28 = test system: SK-MEL-28
EKVX = test system: EKVX
SK-MEL-2 = test system: SK-MEL-2
UACC-62 = test system: UACC-62
TK-10 = test system: TK-10
NCI/ADR-RES = test system: NCI/ADR-RES
SR = test system: SR
RXF 393 = test system: RXF 393
BT-549 = test system: BT-549
IGROV-1 = test system: IGROV-1
SK-MEL-5 = test system: SK-MEL-5
HOP-62 = test system: HOP-62
CAKI-1 = test system: CAKI-1
T47D = test system: T47D
MDA-MB-435 = test system: MDA-MB-435
KM12 = test system: KM12
Hs-578T = test system: Hs-578T
SF-295 = test system: SF-295
HL-60 = test system: HL-60
SNB-75 = test system: SNB-75
U-251 = test system: U-251
DU-145 = test system: DU-145
OVCAR-4 = test system: OVCAR-4
SW-620 = test system: SW-620
UACC-257 = test system: UACC-257
NCI-H460 = test system: NCI-H460
CCRF-CEM = test system: CCRF-CEM
HT-29 = test system: HT-29
MDA-N = test system: MDA-N
SNB-19 = test system: SNB-19
A549 = test system: A549
K562 = test system: K562
UO-31 = test system: UO-31
NCI-H226 = test system: NCI-H226
COLO 205 = test system: COLO 205
RPMI-8226 = test system: RPMI-8226
OVCAR-5 = test system: OVCAR-5
HCT-15 = test system: HCT-15
SN12C = test system: SN12C
M14 = test system: M14
LOX IMVI = test system: LOX IMVI
SF-268 = test system: SF-268
NCI-H23 = test system: NCI-H23
MDA-MB-231 = test system: MDA-MB-231
HOP-92 = test system: HOP-92
HCC 2998 = test system: HCC 2998

Measured: GI50

O=C1C[C@@H](Sc2ccccc2)C2(OCCO2)C2ON3CCCC[C@H]3[C@H]12 (some centres not stated)
inactive: Malme-3M 8.41 µM | SF-539 1.94 µM | OVCAR-3 13 µM | ACHN 2.49 µM | A498 30.5 µM | MCF7 6.32 µM | 786-0 3.53 µM | HCT-116 4.33 µM | OVCAR-8 3.87 µM | SK-OV-3 41.5 µM | PC-3 7.36 µM | NCI-H522 2.15 µM | SK-MEL-28 19.4 µM | EKVX 10.8 µM | SK-MEL-2 18.1 µM | UACC-62 6.03 µM | TK-10 6.34 µM | NCI/ADR-RES 5.78 µM | RXF 393 4.48 µM | BT-549 5.81 µM | IGROV-1 5.48 µM | SK-MEL-5 7.74 µM | HOP-62 16.5 µM | CAKI-1 7.71 µM | T47D 16.2 µM | MDA-MB-435 11.7 µM | KM12 4.48 µM | Hs-578T 10.8 µM | SF-295 15.9 µM | HL-60 1.67 µM | SNB-75 12.4 µM | U-251 4.73 µM | DU-145 12.1 µM | OVCAR-4 7.73 µM | SW-620 3.63 µM | UACC-257 14.2 µM | NCI-H460 9.66 µM | HT-29 4.75 µM | MDA-N 13.2 µM | SNB-19 10.5 µM | A549 7.36 µM | K562 2.11 µM | UO-31 3.75 µM | NCI-H226 13.8 µM | COLO 205 7.8 µM | RPMI-8226 3.07 µM | OVCAR-5 17.7 µM | SN12C 3.82 µM | M14 10.7 µM | LOX IMVI 2.49 µM | SF-268 7.55 µM | NCI-H23 9.38 µM | MDA-MB-231 12.6 µM | HOP-92 7 µM
active: MOLT-4 0.989 µM | SR 0.927 µM | CCRF-CEM 0.92 µM
2.81 µM: HCT-15

NC(=O)c1nnsc1N/N=C/c1ccc([N+](=O)[O-])cc1
inactive: MOLT-4 > 100 µM | Malme-3M > 100 µM | SF-539 > 100 µM | OVCAR-3 55.2 µM | ACHN > 100 µM | A498 > 100 µM | MCF7 > 100 µM | 786-0 41 µM | HCT-116 > 100 µM | OVCAR-8 > 100 µM | SK-OV-3 > 100 µM | PC-3 > 100 µM | NCI-H522 > 100 µM | SK-MEL-28 > 100 µM | HCC 2998 > 100 µM | EKVX > 100 µM | SK-MEL-2 > 100 µM | UACC-62 > 100 µM | NCI/ADR-RES > 100 µM | SR 33.9 µM | RXF 393 > 100 µM | BT-549 19.7 µM | IGROV-1 > 100 µM | SK-MEL-5 > 100 µM | HOP-62 > 100 µM | CAKI-1 > 100 µM | T47D > 100 µM | MDA-MB-435 76.9 µM | KM12 > 100 µM | Hs-578T > 100 µM | SF-295 > 100 µM | HL-60 73.5 µM | SNB-75 > 100 µM | U-251 > 100 µM | DU-145 > 100 µM | OVCAR-4 > 100 µM | SW-620 > 100 µM | UACC-257 > 100 µM | NCI-H460 > 100 µM | CCRF-CEM > 100 µM | HT-29 > 100 µM | MDA-N > 100 µM | SNB-19 > 100 µM | A549 > 100 µM | K562 > 100 µM | UO-31 77.1 µM | NCI-H226 > 100 µM | COLO 205 > 100 µM | RPMI-8226 > 100 µM | OVCAR-5 > 100 µM | SN12C > 100 µM | M14 > 100 µM | LOX IMVI > 100 µM | SF-268 > 100 µM | NCI-H23 > 100 µM | MDA-MB-231 > 100 µM
> 100 µM: HCT-15

Cc1cc(C)c2c(=O)n(CN3CCC(C#N)(c4ccccc4)CC3)sc2n1
inactive: MOLT-4 49.4 µM | Malme-3M 22.5 µM | SF-539 31.3 µM | OVCAR-3 83 µM | ACHN 21.7 µM | A498 > 100 µM | MCF7 62.5 µM | 786-0 22.7 µM | HCT-116 > 100 µM | OVCAR-8 28.6 µM | SK-OV-3 > 100 µM | PC-3 76.7 µM | NCI-H522 14.3 µM | SK-MEL-28 42.5 µM | EKVX 52.7 µM | SK-MEL-2 > 100 µM | UACC-62 > 100 µM | TK-10 25.6 µM | NCI/ADR-RES 51.1 µM | SR 49.9 µM | RXF 393 26.3 µM | BT-549 91.2 µM | IGROV-1 > 100 µM | SK-MEL-5 72.1 µM | HOP-62 44.1 µM | CAKI-1 39.3 µM | T47D > 100 µM | MDA-MB-435 24.4 µM | KM12 > 100 µM | Hs-578T 47.8 µM | SF-295 > 100 µM | HL-60 18.5 µM | SNB-75 37.7 µM | U-251 > 100 µM | DU-145 > 100 µM | OVCAR-4 30.3 µM | SW-620 24.4 µM | UACC-257 22.2 µM | NCI-H460 40.4 µM | CCRF-CEM 20.3 µM | HT-29 39.9 µM | MDA-N 29.6 µM | SNB-19 > 100 µM | A549 97.9 µM | K562 54 µM | UO-31 17.8 µM | NCI-H226 > 100 µM | COLO 205 30.8 µM | OVCAR-5 30.9 µM | SN12C > 100 µM | M14 50.2 µM | LOX IMVI 26.2 µM | SF-268 40 µM | NCI-H23 34.4 µM | MDA-MB-231 > 100 µM | HOP-92 88.1 µM
39.1 µM: HCT-15
